Tests used:
[1] = tested on: A549-ACE2 infected with SARS-CoV-2; test: cell count relative to DMSO; higher = less toxic; details: 24 h
Caco-2 [2] = test: cell viability relative to DMSO; higher = less toxic; details: 72 h
Calu-3 [3] = test: as above; details: 72 h
HepG2 [4] = test: as above; details: 72 h
U2OS [5] = test: as above; details: 72 h
Vero E6 [6] = test: as above; details: 72 h
[7] = tested on: A549-ACE2 infected with SARS-CoV-2; test: SARS-CoV-2 infection rate relative to DMSO; higher = more infection; details: 24 h
A549-ACE2 = test: drug-induced phospholipidosis relative to tamoxifen; higher = more phospholipidosis
[8] = tested on: A549-ACE2 infected with SARS-CoV-2; test: morphology score (similarity to uninfected cells); higher = more like uninfected cells; details: 24 h
Caco-2 [9] = test: relative viability EC50 (midpoint between 100% and the lowest measured viability); higher = less toxic; details: 72 h
Calu-3 [10] = test: as above; details: 72 h
HepG2 [11] = test: as above; details: 72 h
U2OS [12] = test: as above; details: 72 h
Vero E6 [13] = test: as above; details: 72 h
Caco-2 [14] = test: drug sensitivity score (DSS) for viability; higher = more toxic; extreme values may be limits of the assay; details: 72 h
Calu-3 [15] = test: as above; details: 72 h
HepG2 [16] = test: as above; details: 72 h
U2OS [17] = test: as above; details: 72 h
Vero E6 [18] = test: as above; details: 72 h

CN1CCCCC1Cn1cc(C(=O)c2cc([N+](=O)[O-])ccc2I)c2ccccc21 (configuration not stated) [AM-1241]
Details | SARS-CoV-2 infection rate, [7] [%] | cell count, [1] [%] | cell viability, Caco-2 [2] [%] | cell viability, Calu-3 [3] [%] | cell viability, HepG2 [4] [%] | cell viability, U2OS [5] [%] | cell viability, Vero E6 [6] [%] | morphology score, [8]
1 nM | – | – | 92.7 | 103 | 89.1 | 94 | 95.4 | –
10 nM | – | – | 92.8 | 103 | 101 | 97.6 | 99.2 | –
100 nM | – | – | 100 | 99.3 | 107 | 91.7 | 96.5 | –
0.3 µM | 107 | 104 | – | – | – | – | – | 0.18
1000 nM | – | – | 94.4 | 94.4 | 102 | 98.1 | 97.1 | –
3 µM | 85 | 109 | – | – | – | – | – | 0.36
10 µM | 63 | 118 | – | – | – | – | – | 0.87
10000 nM | – | – | 97.8 | 104 | 102 | 99 | 106 | –
30 µM | 33 | 115 | – | – | – | – | – | 0.66

drug-induced phospholipidosis [%], A549-ACE2
Details | 0.3 µM | 0.833333 µM | 3.33333 µM | 6.66667 µM | 10 µM | 30 µM
24 h | -1.12 | 0.49 | 3.57 | 9.5 | 15.9 | 81.8
48 h | -0.88 | -2.35 | 0.06 | 1.85 | 8.12 | 104
72 h | -1.12 | -4.89 | -3.06 | 1.99 | 5.24 | 111

Details | drug sensitivity score | relative viability EC50 [µM]
Caco-2 [9] | – | > 10
Caco-2 [14] | 0 | –
Calu-3 [10] | – | > 10
Calu-3 [15] | 0 | –
HepG2 [11] | – | > 10
HepG2 [16] | 0 | –
U2OS [12] | – | > 10
U2OS [17] | 0 | –
Vero E6 [13] | – | > 10
Vero E6 [18] | 0 | –

CCC(CC)COC(=O)[C@H](C)N[P@](=O)(OC[C@H]1O[C@@](C#N)(c2ccc3c(N)ncnn23)[C@H](O)[C@@H]1O)Oc1ccccc1 [Remdesivir]
Details | SARS-CoV-2 infection rate [%] | cell count [%] | cell viability [%] | morphology score
Caco-2 [2], 1 nM | – | – | 103 | –
Caco-2 [2], 10 nM | – | – | 101 | –
Caco-2 [2], 100 nM | – | – | 102 | –
Caco-2 [2], 1000 nM | – | – | 102 | –
Caco-2 [2], 10000 nM | – | – | 69.3 | –
Calu-3 [3], 1 nM | – | – | 90.6 | –
Calu-3 [3], 10 nM | – | – | 103 | –
Calu-3 [3], 100 nM | – | – | 88.7 | –
Calu-3 [3], 1000 nM | – | – | 97 | –
Calu-3 [3], 10000 nM | – | – | 81.1 | –
HepG2 [4], 1 nM | – | – | 101 | –
HepG2 [4], 10 nM | – | – | 95.5 | –
HepG2 [4], 100 nM | – | – | 105 | –
HepG2 [4], 1000 nM | – | – | 70.2 | –
HepG2 [4], 10000 nM | – | – | 33.7 | –
U2OS [5], 1 nM | – | – | 98 | –
U2OS [5], 10 nM | – | – | 100 | –
U2OS [5], 100 nM | – | – | 101 | –
U2OS [5], 1000 nM | – | – | 96.1 | –
U2OS [5], 10000 nM | – | – | 42.6 | –
Vero E6 [6], 1 nM | – | – | 97.2 | –
Vero E6 [6], 10 nM | – | – | 97.6 | –
Vero E6 [6], 100 nM | – | – | 99.7 | –
Vero E6 [6], 1000 nM | – | – | 99.3 | –
Vero E6 [6], 10000 nM | – | – | 109 | –
[1], 0.008 µM | – | 104 | – | –
[1], 0.033 µM | – | 114 | – | –
[1], 0.1 µM | – | 120 | – | –
[1], 0.3 µM | – | 126 | – | –
[1], 1 µM | – | 124 | – | –
[1], 3 µM | – | 116 | – | –
[1], 10 µM | – | 111 | – | –
[1], 30 µM | – | 105 | – | –
[7], 0.008 µM | 95 | – | – | –
[7], 0.033 µM | 83 | – | – | –
[7], 0.1 µM | 18 | – | – | –
[7], 0.3 µM | 11 | – | – | –
[7], 1 µM | 16 | – | – | –
[7], 3 µM | 9 | – | – | –
[7], 10 µM | 2 | – | – | –
[7], 30 µM | 2 | – | – | –
[8], 0.008 µM | – | – | – | 0.17
[8], 0.033 µM | – | – | – | 0.61
[8], 0.1 µM | – | – | – | 0.82
[8], 0.3 µM | – | – | – | 0.95
[8], 1 µM | – | – | – | 0.96
[8], 3 µM | – | – | – | 0.97
[8], 10 µM | – | – | – | 0.93
[8], 30 µM | – | – | – | 0.93

drug-induced phospholipidosis [%], A549-ACE2
Details | 0.3 µM | 0.833333 µM | 3.33333 µM | 6.66667 µM | 10 µM | 30 µM
24 h | 1.03 | -4.55 | 5.63 | 18 | 30 | 47.1
48 h | 4.23 | -7.54 | 0.11 | 4.58 | 10.5 | –
72 h | 4.52 | -8.77 | -4.57 | – | – | –

Details | drug sensitivity score | relative viability EC50 [µM]
Caco-2 [14] | 1.2 | –
Calu-3 [10] | – | > 10
Calu-3 [15] | 0.4 | –
HepG2 [11] | – | 1.09
HepG2 [16] | 7.5 | –
U2OS [12] | – | 2.62
U2OS [17] | 3.7 | –
Vero E6 [13] | – | > 10
Vero E6 [18] | 0 | –
